In patent US9975881B2, “Compound” (ASTRAZENECA AB, priority 2011, dated 2018):

Assays:
plasma proteins = experiment: Human plasma protein binding (hPPB), equilibrium dialysis; format: in vitro ADME; conditions: human plasma pH 7.4, 37° C., 18 hours, 10 μM
Method: Measurement of Human Plasma Protein Binding (hPPB)
The extent of binding of a drug to plasma proteins is a crucial factor in determining in vivo potency and pharmacokinetics. The method used for determining the extent of plasma protein binding involves equilibrium dialysis of the compound between plasma and buffer at 37° C. The concentrations of compound in the plasma and buffer are then determined using high pressure liquid chromatography (HPLC) with mass spectroscopy (MS) detection. The dialysis method involves the use of mixtures of up to 10 compounds simultaneously. At the concentrations used in the assay, there is no significant difference in the results when compounds are run singly or in mixtures.
Membranes (molecular weight cut-off 5000) were first prepared by soaking in the dialysis buffer for a minimum of 1 hour. […]
The samples and standards were then analysed using HPLC with MS detection, which allows deconvolution of the mixtures of compounds. […]
The chromatograms were processed using MassLynx software that automatically calculates a calibration curve for each compound in a mixture and then interpolates the concentrations of buffer and plasma samples. […] The percentage bound was calculated from the MassLynx data using the following equation: […]
The % free (100-% bound) for each compound was calculated from the concentration data, and then recorded.

[1] = Distribution coefficient at pH 7.4 (Log D7.4), 1-octanol/phosphate buffer; format: physicochemical; conditions: 1-octanol / 0.02 M phosphate buffer pH 7.4
Method: Measurement of Distribution Coefficient at pH 7.4 (Log D7.4)
Compounds of interest (1 mg) were dispensed into individual 1-mL polypropylene vials, held within a 96-well plate along with 1-octanol (700 μL), and presaturated with 0.02 M phosphate buffer (pH 7.4). The plate was then shaken overnight followed by centrifugation (800 g for 15 min) to sediment any undissolved solids. Up to 24 mixtures of 10 compounds (or less) were then prepared by pooling the 1-octanol solutions (100 μL) into a plate of 12-mL glass sample tubes. […] The pooling of compounds was performed robotically and controlled using automatically generated bespoke work lists. If a mixture contained less than 10 compounds, then 1-octanol (presaturated with 0.02 M phosphate buffer [pH 7.4]) was added to make up the total volume of the 1-octanol phase to 1 mL. 1-Octanol-saturated phosphate buffer (0.02 M, pH 7.4, 2 mL) was then added to each mixture before shaking (450 rpm for 30 min) and centrifugation (800 g for 15 min). The final 1-octanol and aqueous phases of each partition mixture were then robotically separated. […] Log D7.4 was calculated from the ratio of one of the 1-octanol relative concentrations to the interpolated aqueous relative concentration after correcting for the extent of dilution of both the 1-octanol and aqueous solutions.

human plasma protein binding (% free) (plasma proteins): 0.11 (±0.05) % free
logD [1]: 1.9
Compound: CC1CN(S(=O)(=O)Nc2cc(O[C@H](C)[C@@H](O)CO)nc(SCc3ccc(F)cc3)n2)C1 [Example 1, N-(6-((2R,3S)-3,4-Dihydroxybutan-2-yloxy)-2-(4-fluorobenzylthio)pyrimidin-4-yl)-3-methylazetidine-1-sulfonamide]
